Reference: patent US20110098177A1, “METHODS AND COMPOSITIONS OF PLANT MICRONUTRIENTS” (NOVUS INTERNATIONAL INC., priority 2006, published 2011)
Entries after “also recorded” stand apart in the source; their conditions may differ.

Experiments:
Type in all cases: in vivo
[1] = system: Tygress tomato plants; experiment: Foliar nutrient concentration 2 weeks after treatment, greenhouse tomato (Examples 4-6); details: for B concentration in tomato leaves / Ca concentration in tomato leaves / Cu concentration in tomato leaves / Fe concentration in tomato leaves / K concentration in tomato leaves / Mg concentration in tomato leaves / N concentration in tomato leaves / P concentration in tomato leaves / Zn concentration in tomato leaves: 2 weeks after Mn treatment; for Foliar Mn concentration: tomato leaves 2 weeks after Mn treatment
In short: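 Tygress tomato in 2-gallon pots of micronutrient-poor medium (negligible Fe, Zn, Mn, Cu) in greenhouse; foliar treatments at 5 WAT in 200 mL/plant water with non-ionic surfactant. Newest non-applied leaves analysed 2 weeks before and after treatment; marketable fruit harvested three times from 10 WAT, graded. RCBD, 6 replications, LSD 5%.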

[2] = system: Tygress tomato plants; experiment: Foliar nutrient concentration at 6 WAT, open-field tomato (Examples 7-10); details: 6 WAT, open field
In short: (§1)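 Open-field 2008 trial, Balm FL; 'Tygress' tomato and 'Patriot' pepper transplants on drip-fed raised beds. Foliar micronutrient sprays at 3 and 5 WAT (BIOX-CM at 4 and 5), 60 gal/acre with surfactant. Youngest mature leaves sampled 6 WAT; RCBD, 5 replications, Fisher's LSD 5%.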

[3] = system: Patriot bell pepper plants; experiment: Foliar nutrient concentration at 6 WAT, open-field bell pepper (Examples 7-10); details: 6 WAT; open field; product rate as Table 17
In short: as §1

[4] = system: Tygress tomato plants; experiment: Nutrient concentration of tomato fruits at 10 WAT, open field (Examples 7-10); details: 10 WAT; open field; product rate as Table 17
In short: as §1

CSCCC(O)C(=O)[O-].CSCCC(O)C(=O)[O-].[Mn+2] (stereo not drawn) [BIOX-M, Mn-HMTBA]
B concentration in tomato leaves ([1]; Mn 0.31 lb/acre): 22 ppm | Ca concentration in tomato leaves ([1]; Mn 0.31 lb/acre): 0.6% | Cu concentration in tomato leaves ([1]; Mn 0.31 lb/acre): 5 ppm | Fe concentration in tomato leaves ([1]; Mn 0.31 lb/acre): 109 ppm | K concentration in tomato leaves ([1]; Mn 0.31 lb/acre): 3.1% | Mg concentration in tomato leaves ([1]; Mn 0.31 lb/acre): 0.3% | N concentration in tomato leaves ([1]; Mn 0.31 lb/acre): 3.5% | P concentration in tomato leaves ([1]; Mn 0.31 lb/acre): 0.4% | Zn concentration in tomato leaves ([1]; Mn 0.31 lb/acre): 31 ppm | Foliar Mn concentration ([1]; Mn 0.31 lb/acre): 22.9 b ppm | B concentration in tomato leaves ([1]; Mn 0.62 lb/acre): 24 ppm | Ca concentration in tomato leaves ([1]; Mn 0.62 lb/acre): 0.6% | Cu concentration in tomato leaves ([1]; Mn 0.62 lb/acre): 5 ppm | Fe concentration in tomato leaves ([1]; Mn 0.62 lb/acre): 110 ppm | K concentration in tomato leaves ([1]; Mn 0.62 lb/acre): 3.2% | Mg concentration in tomato leaves ([1]; Mn 0.62 lb/acre): 0.3% | N concentration in tomato leaves ([1]; Mn 0.62 lb/acre): 3.5% | P concentration in tomato leaves ([1]; Mn 0.62 lb/acre): 0.5% | Zn concentration in tomato leaves ([1]; Mn 0.62 lb/acre): 32 ppm | Foliar Mn concentration ([1]; Mn 0.62 lb/acre): 29.5 b ppm | B concentration in tomato leaves ([1]; Mn 1.23 lb/acre): 25 ppm | Ca concentration in tomato leaves ([1]; Mn 1.23 lb/acre): 0.6% | Cu concentration in tomato leaves ([1]; Mn 1.23 lb/acre): 5 ppm | Fe concentration in tomato leaves ([1]; Mn 1.23 lb/acre): 112 ppm | K concentration in tomato leaves ([1]; Mn 1.23 lb/acre): 3.1% | Mg concentration in tomato leaves ([1]; Mn 1.23 lb/acre): 0.3% | N concentration in tomato leaves ([1]; Mn 1.23 lb/acre): 3.5% | P concentration in tomato leaves ([1]; Mn 1.23 lb/acre): 0.5% | Zn concentration in tomato leaves ([1]; Mn 1.23 lb/acre): 28 ppm | Foliar Mn concentration ([1]; Mn 1.23 lb/acre): 60.6 a ppm | B concentration in tomato leaves ([1]; Mn 2.46 lb/acre): 23 ppm | Ca concentration in tomato leaves ([1]; Mn 2.46 lb/acre): 0.6% | Cu concentration in tomato leaves ([1]; Mn 2.46 lb/acre): 5 ppm | Fe concentration in tomato leaves ([1]; Mn 2.46 lb/acre): 114 ppm | K concentration in tomato leaves ([1]; Mn 2.46 lb/acre): 3.2% | Mg concentration in tomato leaves ([1]; Mn 2.46 lb/acre): 0.3% | N concentration in tomato leaves ([1]; Mn 2.46 lb/acre): 3.6% | P concentration in tomato leaves ([1]; Mn 2.46 lb/acre): 0.4% | Zn concentration in tomato leaves ([1]; Mn 2.46 lb/acre): 33 ppm | Foliar Mn concentration ([1]; Mn 2.46 lb/acre): 69.2 a ppm | Foliar concentration of Mn of tomato plants, statement [2]: significant increase; also recorded: highest foliar concentration of Mn; also recorded: significantly higher foliar Mn content | Foliar concentration of P of tomato plants compared to control, statement [2]: significant increase | Foliar B concentration of tomato plants ([2]; product rate as Table 17): 70 ppm | Foliar Ca concentration of tomato plants ([2]; product rate as Table 17): 1.7% | Foliar Cu concentration of tomato plants ([2]; product rate as Table 17): 417 ppm | Foliar Fe concentration of tomato plants ([2]; product rate as Table 17): 88 ppm | Foliar K concentration of tomato plants ([2]; product rate as Table 17): 4.6 b % | Foliar Mg concentration of tomato plants ([2]; product rate as Table 17): 0.56% | Foliar Mn concentration of tomato plants ([2]; product rate as Table 17): 470 a ppm | Foliar N concentration of tomato plants ([2]; product rate as Table 17): 4.4% | Foliar P concentration of tomato plants ([2]; product rate as Table 17): 0.19 b % | Foliar Zn concentration of tomato plants ([2]; product rate as Table 17): 266 b ppm | Foliar B concentration of bell pepper plants [3]: 59 ppm | Foliar Ca concentration of bell pepper plants [3]: 4.2% | Foliar Cu concentration of bell pepper plants [3]: 462 ppm | Foliar Fe concentration of bell pepper plants [3]: 124 ppm | Foliar K concentration of bell pepper plants [3]: 3.4% | Foliar Mg concentration of bell pepper plants [3]: 0.52% | Foliar Mn concentration of bell pepper plants [3]: 436 ppm | Foliar N concentration of bell pepper plants [3]: 4.4% | Foliar P concentration of bell pepper plants [3]: 0.25% | Foliar Zn concentration of bell pepper plants [3]: 63 ppm | B concentration of tomato fruits [4]: 23 ppm | Ca concentration of tomato fruits [4]: 0.2% | Cu concentration of tomato fruits [4]: 23 b ppm | Fe concentration of tomato fruits [4]: 81 b ppm | K concentration of tomato fruits [4]: 8.0% | Mg concentration of tomato fruits [4]: 0.37% | Mn concentration of tomato fruits [4]: 43 b ppm | N concentration of tomato fruits [4]: 4.2% | P concentration of tomato fruits [4]: 0.65% | Zn concentration of tomato fruits [4]: 209 b ppm
